Where two headings read alike, the source gives them in different places.
How the values were obtained:
VeroE6 cells = test: Cell viability assay (CellTiterGlo), VeroE6; assay type: cell-based, African green monkey
Description: (§1) The CellTiterGlo® luminescent assay (Promega Corporation, Madison, Wis., USA) was performed to detect the cytotoxicity of the selected compounds as previously described^39. Briefly, VeroE6 cells (4×10^4 cells per well) and Caco2 cells (4×10^4 cells per well) were incubated with different concentrations of the individual compound in 96-well plates for 48 hrs, followed by the addition of the substrate and measurement of luminance 10 min later. Ridaura and Au(PEt3)Cl were dissolved in DMSO, and the final percentage of DMSO was kept at 1% in culture medium.

SARS-CoV-2 PL^pro [1] = target: T1, SARS-CoV-2 PL^pro (Severe acute respiratory syndrome coronavirus 2, UniProt P0DTD1); test: Zinc release assay (FluoZin-3); assay type: binding
Description: The release of Zn^2+ from SARS-CoV-2 PL^pro upon bismuth drug exposure was perform by a previously described method with zinc-specific fluorophore FluoZin™-3 (Invitrogen/Life Technologies) (21). Briefly, SARS-CoV-2 PLpro (20 μM) was incubated with 0, 2, 5, 20 mol eq. Bi^3+ (as CBS), for 180 min at room temperature, followed by the addition of FluoZin-3 (1 μM) in a total reaction volume of 100 μL (50 mM Tris-HCl, pH7.4) at room temperature. Fluorescence (λex=494 nm, λem=530 nm) was detected and converted into Zn^2+ concentrations using standard curves prepared from […] under identical condition. The signals of CBS at corresponding concentrations after mixing with FluoZin™-3 were recorded for background subtraction. The assay was performed in triplicate and the results were plotted as the [Zn^2+]/[PL^pro] verse [Bi^3+]/[PL^pro].

SARS-CoV-2 M^pro [2] = target: T2, SARS-CoV-2 M^pro (Severe acute respiratory syndrome coronavirus 2, UniProt P0DTD1); test: Ellman's assay of free cysteine; assay type: binding
Description: Amount of free cysteine was assayed spectrophotometrically with DTNB [5,5′-dithiobis-(2-nitrobenzoic acid)]according to a previously described method^(22). Briefly, SARS-CoV-2 M^pro (15 μM) was incubated with 0, 2, 5, 20 mol eq. […] Equal volume of DTNB (2 mM) was added to the reaction mix in a total reaction volume of 100 μL. After the incubation for 90 min, absorption of 412 nm which indicated the release of 5-thiobenzoate anion, was detected and converted into thiol concentrations using standard curves prepared with reduced glutathione (GSH) under identical condition. The assay was performed in triplicate and the results were plotted as the [free cysteine]/[M^pro] verse [Bi^3+]/[M^pro].

SARS-CoV-2 PL^pro [3] = target: T1, SARS-CoV-2 PL^pro; test: Bi^3+ binding to PL^pro (UV-vis kinetics and titration)
SARS-CoV-2 M^pro [4] = target: T2, SARS-CoV-2 M^pro; test: Bi^3+ binding to M^pro (UV-vis kinetics and titration)
[5] = Chemical stability of bismuth drugs at different pH; settings: data not shown; for effect of the thiol-containing drug on hydrolysis of CBS: acidic conditions
SARS-CoV-2 M^pro [6] = target: T2, SARS-CoV-2 M^pro; test: biochemical; assay type: biochemical
SARS-CoV-2 [7] = assay type: cell-based; settings: 24 h, 1000 µM
SARS-CoV-2 [8] = test: Viral load reduction assay in VeroE6 cells; assay type: cell-based
Description: Viral load reduction assay was performed on VeroE6 and Caco2 cells, as described previously with modifications^41. Supernatant samples from the infected cells (0.1 MOI) were harvested at 48 hours post-infection (hpi) for qRT-PCR analysis of virus replication. Briefly, 100 μL of viral supernatant were lyzed with 400 μL of AVL buffer and then extracted for total RNA with the QIAamp viral RNA mini kit (Qiagen, Hilden, Germany). Real-time one-step qRT-PCR was used for quantitation of SARS-CoV-2 viral load using the QuantiNova Probe RT-PCR kit (Qiagen) with a LightCycler 480 Real-Time PCR System (Roche) as previously described^15. Each […] mixture contained 10 μL of 2×QuantiNova Probe RT-PCR Master Mix, 1.2 μL of RNase-free water, 0.2 μL of QuantiNova Probe RT-Mix, 1.6 μL each of 10 μM forward and reverse primer, 0.4 μL of 10 μM probe, and 5 μL of extracted RNA as the template. Reactions were incubated at 45° C. for 10 min for reverse transcription, 95° C. for 5 min for denaturation, followed by 45 cycles of 95° C. for 5 s and 55° C. for 30 s. Signal detection and measurement were taken in each cycle after the annealing step. The cycling profile ended with a cooling step at 40° C. for 30 s. The primers and probe sequences are against the RNA-dependent RNA polymerase/Helicase (RdRP/Hel) gene region of SARS-Cov-2 previously described^42.
Cell culture supernatants were collected at 48 hour-post-infection (hpi) for viral RNA extraction and quantitative reverse transcription-polymerase chain reaction (qRT-PCR) as previously described with modifications(13, 14). The primers and probe sequences were against the RNA-dependent RNA polymerase/Helicase (RdRP/Hel) gene region of SARS-CoV-2: forward primer: 5′-[…]-3′ (SEQ ID NO:6); reverse primer: 5′-[…]-3′(SEQ ID NO:7); specific probe: 5′-[…]-IABkFQ-3′(SEQ ID NO:8). The viral load reduction assay experiments were performed in triplicate and repeated twice for confirmation.

SARS-CoV-2 PL^pro [9] = target: T1, SARS-CoV-2 PL^pro; test: PL^pro activity inhibition assay (FRET); assay type: biochemical
SARS-CoV-2 [10] = test: Golden Syrian hamster model, oral treatment (NAC studies); assay type: in vivo
SARS-CoV-2 [11] = assay type: cell-based
SARS-CoV-2 [12] = assay type: cell-based; settings: read-out: EC50 VeroE6
SARS-CoV-2 [13] = settings: 0.1 MOI, 48 hpi, non-toxic concentrations
Caco2 cells = test: Cell viability assay (CellTiterGlo), Caco2; assay type: cell-based, human; settings: Caco-2
Description: as §1

pseudo-SARS-CoV-2-Luc = assay type: cell-based
[14] = 48 hrs incubation, concentration based on metal content, read-out: CC50 VeroE6
[15] = 0.1 MOI, 48 hpi, non-toxic concentrations

Compound: CCP(CC)CC.[Au+].[Cl-] [Au(PEt3)Cl, chloro(triethylphosphine)gold(I)]
- CC50 (VeroE6 cells; [14]): 13.5 ± 1.8 µM

Compound: [Bi+3] [Bi^3+]
- Zn^2+ released from PL^pro (SARS-CoV-2 PL^pro [1]): ~0.78 eq.
- decrease of free cysteine in M^pro (SARS-CoV-2 M^pro [2]): ~1 eq.
- molar ratio [Bi3+]/[SARS-CoV-2 PL^pro] at plateau (SARS-CoV-2 PL^pro [3]; absorption at 340 nm): ~3
- Kd (SARS-CoV-2 PL^pro [3]; read-out: estimated dissociation constant (Kd), PL^pro): 1.13 µM
- molar ratio [Bi3+]/[SARS-CoV-2 Mpro] at plateau (SARS-CoV-2 M^pro [4]; absorption at 340 nm): ~1
- Kd (SARS-CoV-2 M^pro [4]; read-out: estimated dissociation constant (Kd), M^pro): 0.6 µM

Compound: C[C@H](CS)C(=O)N1CCC[C@H]1C(=O)O [CPL, captopril]
- effect of the thiol-containing drug on hydrolysis of CBS [5]: prevent hydrolysis of CBS

Compound: N[C@@H](CCC(=O)N[C@@H](CS)C(=O)NCC(=O)O)C(=O)O [GSH, glutathione]
- effect of the thiol-containing drug on hydrolysis of CBS [5]: prevent hydrolysis of CBS

Compound: CC(=O)N[C@@H](CS)C(=O)O [NAC, N-acetyl cysteine]
- IC50 (SARS-CoV-2 M^pro [6]): > 450 µM
- inhibition of M^pro at comparable concentrations (SARS-CoV-2 M^pro [6]): negligible inhibitory
- viral NP antigen-positive cells (SARS-CoV-2 [7]): 59.75%
- anti-SARS-CoV-2 activity in Vero E6 culture supernatant (SARS-CoV-2 [8]; up to 2000 μM): negligible anti-SARS-CoV-2 activity
- IC50 (SARS-CoV-2 PL^pro [9]): > 150 µM
- inhibition of PL^pro at comparable concentrations (SARS-CoV-2 PL^pro [9]): negligible inhibitory
- lung pathology (SARS-CoV-2 [10]; H&E): partially relieved lung pathology
- pulmonary viral load compared with vehicle group (SARS-CoV-2 [10]; oral CBS 300 mg/kg or NAC 370 mg/kg, 2 dpi): No statistically significant difference

Compound: CC(C)(S)[C@@H](N)C(=O)O [PCM, penicillamine]
- effect of the thiol-containing drug on hydrolysis of CBS [5]: prevent hydrolysis of CBS

Compound: CC[PH](CC)(CC)[Au][S][C@@H]1O[C@H](COC(C)=O)[C@@H](OC(C)=O)[C@H](OC(C)=O)[C@H]1OC(C)=O [Ridaura, Auranofin]
- CC50 (VeroE6 cells; [14]): 14.2 ± 1.3 µM

Compound: O=C(O)c1ccccc1S [TSA, thiosalicylic acid]
- effect of the thiol-containing drug on hydrolysis of CBS [5]: prevent hydrolysis of CBS

Compound: Bi(TPP) (TPP: tetraphenylporphyrinate)
- effect on virus replication, drug maintained after virus entry (post-entry) (SARS-CoV-2 [11]; MOI=2, viral titer at 9 hpi): functioned at post-entry stages
- CC50 (VeroE6 cells): > 400 µM
- maximal viral load reduction in VeroE6 cell culture supernatant (SARS-CoV-2 [8]; [15]): ~3 logs
- maximal viral load reduction in the VeroE6 cell lysate (SARS-CoV-2 [8]; [15]): ~1 logs
- EC50 (SARS-CoV-2 [12]; SARS-CoV-2 plaque reduction, concentration based on metal content): 3.9 ± 1.2 µM
- maximal viral load reduction in Caco2 cell culture supernatant (SARS-CoV-2 [13]): ~3 logs
- maximal viral load reduction in the Caco2 cell lysate (SARS-CoV-2 [13]): ~2 logs
- CC50 (Caco2 cells): > 400 µM

Compound: Bi(TPyP) (TPyP: tetra(4-pyridyl)porphyrin)
- effect on virus replication, drug added during pre-incubation (cells pre-treatment) (SARS-CoV-2 [11]): significantly suppressed virus replication
- effect on virus replication, drug added during virus co-infection (SARS-CoV-2 [11]): significantly suppressed virus replication
- effect on virus replication, drug maintained after virus entry (post-entry) (SARS-CoV-2 [11]): no detectable effect
- maximal viral load reduction in VeroE6 cell culture supernatant (SARS-CoV-2 [8]): ~3 logs
- maximal viral load reduction in the VeroE6 cell lysate (SARS-CoV-2 [8]): ~1 logs
- percent virus entry lowered (pseudo-SARS-CoV-2-Luc): ~53%
- EC50 (SARS-CoV-2 [12]): 7.5 µM

Compound: bismuth subgallate [BSG]
- stabilisation of the bismuth drug by NAC ([5]; low pH): stabilized
